Measured values reported in the supplement of paper PMC10307832.

Assays:
Assay in all cases: relative viability (nuclei count vs DMSO), 5 days (fraction); higher = more cells survive
201T = test system: 201T
Outline: (§1)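 Medians of duplicate plates are given as relative viability. That measure is the nuclei count in treated wells divided by the count in vehicle wells. Counts were taken on 4× images of lung cancer cell lines in 1536-well plates, 5 days after pin-tool dosing the day after seeding with one drug alone or a fixed anchor-drug dose plus five library-drug doses (not always all listed) in √10 steps.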

A-427 = test system: A-427
Outline: as §1

COR-L23 = test system: COR-L23
Outline: as §1

H3255 = test system: H3255
Outline: as §1

HCC-44 = test system: HCC-44
Outline: as §1

LC-2-ad = test system: LC-2-ad
Outline: as §1

LCLC-103H = test system: LCLC-103H
Outline: as §1

LCLC-97TM1 = test system: LCLC-97TM1
Outline: as §1

LK-2 = test system: LK-2
Outline: as §1

LU99A = test system: LU99A
Outline: as §1

NCI-H1563 = test system: NCI-H1563
Outline: as §1

NCI-H1650 = test system: NCI-H1650
Outline: as §1

NCI-H1793 = test system: NCI-H1793
Outline: as §1

NCI-H2228 = test system: NCI-H2228
Outline: as §1

NCI-H2347 = test system: NCI-H2347
Outline: as §1

NCI-H23 = test system: NCI-H23
Outline: as §1

NCI-H460 = test system: NCI-H460
Outline: as §1

NCI-H596 = test system: NCI-H596
Outline: as §1

NCI-H727 = test system: NCI-H727
Outline: as §1

PC-14 = test system: PC-14
Outline: as §1

SW 1573 = test system: SW 1573
Outline: as §1

SW 900 = test system: SW 900
Outline: as §1

Compound: Cc1sc2c(c1C)C(c1ccc(Cl)cc1)=N[C@@H](CC(=O)OC(C)(C)C)c1nnc(C)n1-2 [JQ1] + CCNC(=O)c1noc(-c2cc(C(C)C)c(O)cc2O)c1-c1ccc(CN2CCOCC2)cc1 [Luminespib] (partner 0.01 µM)
- relative viability (201T; first compound 0.04 µM): 1.06
- relative viability (201T; first compound 0.1265 µM): 0.77
- relative viability (201T; first compound 0.4 µM): 0.745
- relative viability (201T; first compound 1.265 µM): 0.753
- relative viability (201T; first compound 4 µM): 0.522
- relative viability (A-427; first compound 0.04 µM): 0.795
- relative viability (A-427; first compound 0.1265 µM): 0.97
- relative viability (A-427; first compound 0.4 µM): 0.847
- relative viability (A-427; first compound 1.265 µM): 0.563
- relative viability (A-427; first compound 4 µM): 0.431
- relative viability (COR-L23; first compound 0.04 µM): 0.649
- relative viability (COR-L23; first compound 0.1265 µM): 0.6
- relative viability (COR-L23; first compound 0.4 µM): 0.504
- relative viability (COR-L23; first compound 1.265 µM): 0.207
- relative viability (COR-L23; first compound 4 µM): 0.114
- relative viability (H3255; first compound 0.04 µM): 0.904
- relative viability (H3255; first compound 0.1265 µM): 0.699
- relative viability (H3255; first compound 0.4 µM): 1.01
- relative viability (H3255; first compound 1.265 µM): 0.768
- relative viability (H3255; first compound 4 µM): 0.416
- relative viability (HCC-44; first compound 0.04 µM): 0.968
- relative viability (HCC-44; first compound 0.1265 µM): 0.433
- relative viability (HCC-44; first compound 0.4 µM): 0.551
- relative viability (HCC-44; first compound 1.265 µM): 0.388
- relative viability (HCC-44; first compound 4 µM): 0.153
- relative viability (LC-2-ad; first compound 0.04 µM): 0.892
- relative viability (LC-2-ad; first compound 0.1265 µM): 0.58
- relative viability (LC-2-ad; first compound 0.4 µM): 0.576
- relative viability (LC-2-ad; first compound 1.265 µM): 0.395
- relative viability (LC-2-ad; first compound 4 µM): 0.331
- relative viability (LCLC-103H; first compound 0.04 µM): 0.973
- relative viability (LCLC-103H; first compound 0.1265 µM): 0.85
- relative viability (LCLC-103H; first compound 0.4 µM): 0.533
- relative viability (LCLC-103H; first compound 1.265 µM): 0.47
- relative viability (LCLC-103H; first compound 4 µM): 0.358
- relative viability (LCLC-97TM1; first compound 0.04 µM): 0.81
- relative viability (LCLC-97TM1; first compound 0.1265 µM): 0.762
- relative viability (LCLC-97TM1; first compound 0.4 µM): 0.768
- relative viability (LCLC-97TM1; first compound 1.265 µM): 0.356
- relative viability (LCLC-97TM1; first compound 4 µM): 0.3
- relative viability (LK-2; first compound 0.04 µM): 0.188
- relative viability (LK-2; first compound 0.1265 µM): 0.157
- relative viability (LK-2; first compound 0.4 µM): 0.143
- relative viability (LK-2; first compound 1.265 µM): 0.142
- relative viability (LK-2; first compound 4 µM): 0.136
- relative viability (LU99A; first compound 0.04 µM): 0.285
- relative viability (LU99A; first compound 0.1265 µM): 0.246
- relative viability (LU99A; first compound 0.4 µM): 0.266
- relative viability (LU99A; first compound 1.265 µM): 0.173
- relative viability (LU99A; first compound 4 µM): 0.179
- relative viability (NCI-H1563; first compound 0.04 µM): 0.565
- relative viability (NCI-H1563; first compound 0.1265 µM): 0.478
- relative viability (NCI-H1563; first compound 0.4 µM): 0.449
- relative viability (NCI-H1563; first compound 1.265 µM): 0.447
- relative viability (NCI-H1563; first compound 4 µM): 0.491
- relative viability (NCI-H1650; first compound 0.04 µM): 0.21
- relative viability (NCI-H1650; first compound 0.1265 µM): 0.199
- relative viability (NCI-H1650; first compound 0.4 µM): 0.167
- relative viability (NCI-H1650; first compound 1.265 µM): 0.161
- relative viability (NCI-H1650; first compound 4 µM): 0.206
- relative viability (NCI-H1793; first compound 0.04 µM): 0.155
- relative viability (NCI-H1793; first compound 0.1265 µM): 0.209
- relative viability (NCI-H1793; first compound 0.4 µM): 0.197
- relative viability (NCI-H1793; first compound 1.265 µM): 0.318
- relative viability (NCI-H1793; first compound 4 µM): 0.253
- relative viability (NCI-H2228; first compound 0.04 µM): 0.148
- relative viability (NCI-H2228; first compound 0.1265 µM): 0.19
- relative viability (NCI-H2228; first compound 0.4 µM): 0.0885
- relative viability (NCI-H2228; first compound 1.265 µM): 0.112
- relative viability (NCI-H2228; first compound 4 µM): 0.103
- relative viability (NCI-H2347; first compound 0.04 µM): 0.45
- relative viability (NCI-H2347; first compound 0.1265 µM): 0.675
- relative viability (NCI-H2347; first compound 0.4 µM): 0.3
- relative viability (NCI-H2347; first compound 1.265 µM): 0.316
- relative viability (NCI-H2347; first compound 4 µM): 0.32
- relative viability (NCI-H23; first compound 0.04 µM): 0.247
- relative viability (NCI-H23; first compound 0.1265 µM): 0.185
- relative viability (NCI-H23; first compound 0.4 µM): 0.179
- relative viability (NCI-H23; first compound 1.265 µM): 0.166
- relative viability (NCI-H23; first compound 4 µM): 0.173
- relative viability (NCI-H460; first compound 0.04 µM): 0.031
- relative viability (NCI-H460; first compound 0.1265 µM): 0.0279
- relative viability (NCI-H460; first compound 0.4 µM): 0.0618
- relative viability (NCI-H460; first compound 1.265 µM): 0.032
- relative viability (NCI-H460; first compound 4 µM): 0.0328
- relative viability (NCI-H596; first compound 0.04 µM): 1.09
- relative viability (NCI-H596; first compound 0.1265 µM): 0.769
- relative viability (NCI-H596; first compound 0.4 µM): 0.495
- relative viability (NCI-H596; first compound 1.265 µM): 0.344
- relative viability (NCI-H596; first compound 4 µM): 0.287
- relative viability (NCI-H727; first compound 0.04 µM): 0.357
- relative viability (NCI-H727; first compound 0.1265 µM): 0.423
- relative viability (NCI-H727; first compound 0.4 µM): 0.45
- relative viability (NCI-H727; first compound 1.265 µM): 0.35
- relative viability (NCI-H727; first compound 4 µM): 0.346
- relative viability (PC-14; first compound 0.04 µM): 0.146
- relative viability (PC-14; first compound 0.1265 µM): 0.146
- relative viability (PC-14; first compound 0.4 µM): 0.0705
- relative viability (PC-14; first compound 1.265 µM): 0.0929
- relative viability (PC-14; first compound 4 µM): 0.0646
- relative viability (SW 1573; first compound 0.04 µM): 0.249
- relative viability (SW 1573; first compound 0.1265 µM): 0.182
- relative viability (SW 1573; first compound 0.4 µM): 0.195
- relative viability (SW 1573; first compound 1.265 µM): 0.0871
- relative viability (SW 1573; first compound 4 µM): 0.0908
- relative viability (SW 900; first compound 0.04 µM): 0.153
- relative viability (SW 900; first compound 0.1265 µM): 0.186
- relative viability (SW 900; first compound 0.4 µM): 0.169
- relative viability (SW 900; first compound 1.265 µM): 0.183
- relative viability (SW 900; first compound 4 µM): 0.177
